This is an account of results in US20070014721A1, “Hydrazide conjugates as imaging agents” (priority 2005, published 2007).

One may read the tissue uptake as the percentage of the injected dose found per gram of tissue. Low readings indicate little accumulation, high ones strong accumulation.

The target of one series is Aminopeptidase N (Homo sapiens, UniProt P15144). The experiment in a line: Aminopeptidase N cleavage of test substrates. Format: biochemical. Conditions: Boc removed from N-terminus before assay; 0.5 mM test substrate, 0.02 U APN, 37° C, 25 minutes. The procedure: The test compounds were dissolved in 50:50 TFA:dichloromethane and allowed to stand at ambient temperature under nitrogen for 10 minutes to remove the Boc protecting group from the N-terminus amino acid. The solutions were concentrated and the resulting oily residue was dissolved in 50:50 acetonitrile:water and lyophilized. The resulting flocculent solids were used directly in the APN assay.
Chain of Aminopeptidase N (P15144 whole entry, species assumed): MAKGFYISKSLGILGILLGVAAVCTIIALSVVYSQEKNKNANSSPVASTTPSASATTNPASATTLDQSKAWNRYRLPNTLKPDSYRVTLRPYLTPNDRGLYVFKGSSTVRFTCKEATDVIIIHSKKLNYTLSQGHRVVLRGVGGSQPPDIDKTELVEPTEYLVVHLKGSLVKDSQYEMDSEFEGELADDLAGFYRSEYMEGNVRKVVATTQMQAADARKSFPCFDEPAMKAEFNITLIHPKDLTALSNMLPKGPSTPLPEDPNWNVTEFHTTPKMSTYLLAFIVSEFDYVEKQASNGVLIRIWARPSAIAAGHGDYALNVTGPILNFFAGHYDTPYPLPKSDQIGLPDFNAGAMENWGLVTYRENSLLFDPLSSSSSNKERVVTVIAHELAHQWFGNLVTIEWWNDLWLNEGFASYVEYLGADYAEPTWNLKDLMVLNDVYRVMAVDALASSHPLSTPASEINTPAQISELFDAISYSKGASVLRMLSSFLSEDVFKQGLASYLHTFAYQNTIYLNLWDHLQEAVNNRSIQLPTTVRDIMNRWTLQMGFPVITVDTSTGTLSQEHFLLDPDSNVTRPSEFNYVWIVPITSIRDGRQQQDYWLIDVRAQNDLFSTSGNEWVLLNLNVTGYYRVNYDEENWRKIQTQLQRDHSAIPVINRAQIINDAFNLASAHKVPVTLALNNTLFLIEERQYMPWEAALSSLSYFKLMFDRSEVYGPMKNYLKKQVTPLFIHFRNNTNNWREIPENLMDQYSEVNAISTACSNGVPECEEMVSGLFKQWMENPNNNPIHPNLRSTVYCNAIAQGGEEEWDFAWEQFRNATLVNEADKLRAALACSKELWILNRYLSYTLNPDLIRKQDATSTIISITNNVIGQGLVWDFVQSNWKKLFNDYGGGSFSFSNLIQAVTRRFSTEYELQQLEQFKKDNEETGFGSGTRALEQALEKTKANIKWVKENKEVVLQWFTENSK
Aminopeptidase N cleaves amino acids at the N-terminus of proteins and peptides attached to another amino acid. A stock solution of test substrates was prepared in 100% DMSO at a concentration of 8 mM. The stock solution (4.7 μL) was added to buffer (50 mM Hepes/pH 7.5, 10 mM CaCl2, 0.1% Brij) for a final concentration of 0.5 mM test substrate in the reaction. To this reaction solution 0.02 U of the enzyme (APN) was added, the solution was mixed, and immediately 30 μL of the mix was transferred to HPLC vials containing acetic acid (15 μL) for t=0 minutes measurement. The rest of the mix in the test tube was incubated at 37° C. for 25 minutes. At the 25 minutes time point 30 μL of the mix was transferred to an HPLC vial containing acetic acid (15 μl) for the t=25 minute measurement. The test substrates and products were separated by reversed phase HPLC on a Zorbax SB-C18 column (4.6×150 mm, 5 micron) using a water:acetonitrile gradient containing 0.1% TFA at a flow rate of 1.0 mL/min and with UV detection. The peak areas were integrated and the substrate peak area was used to determine rate constant k in the following equation: K={(% hydrolyzed/100)*[S]}/[E]*[time] where S=test substrate concentration in μmoles
E=aminopeptidase N concentration in units/ml
K=μmoles of substrate hydrolyzed/minute/unit enzyme

Series [1] has as its system aorta of apolipoprotein E (apoE) knockout mouse. Conditions: in vivo.
Protocol: (§1) Mice were fed a high-fat diet to accelerate plaque formation and compounds were tested in the mice between 37-41 weeks on diet. Test compounds were radiolabeled (^14C, ^99mTc, or ^111In as described above) and administered at 0.02-4.0 mCi/kg to anesthetized mice in a single, bolus injection via the tail vein. Blood samples were collected via the tail between 0-30 minutes postinjection for pharmacokinetic analysis and mice were euthanized by CO2 at 60 minutes for tissue harvesting. The aorta were flushed with saline through the left ventricle exiting via the femoral vein. The aorta were then removed from the heart to the renal bifurcation and additional tissue samples collected (blood, muscle, liver, kidney, heart, lung, spleen and innominate artery). All samples were weighed and assayed for radioactivity. Tissue uptake is expressed as percent of injected dose per gram of tissue (% ID/g). The aorta to blood ratios were calculated from the % ID/g data.
The test system of series [2] is Rabbit plaque aorta or normal rabbit aorta. The experiment in a line: Ex vivo blood vessel binding assay. Set-up: species or system New Zealand white rabbits. The conditions noted are these: radiolabeled compound incubated with rabbit aorta (0.5 cm) in phosphate buffered saline for 2 hours at 37° C; bound compound as percentage of the incubated compound. The source says:
Normal aorta was obtained from New Zealand white rabbits. Aorta bearing atherosclerotic plaque was obtained from New Zealand white rabbits balloon stripped along the abdominal aorta and placed on a high fat diet (0.5% cholesterol) for 16-22 weeks. Vascular injury was produced with a 3-F Fogarty catheter along the abdominal aorta and left iliofemoral artery. This procedure generates an accelerated complex lesion development with a lipid rich core covered by a fibrous cap in rabbits. Rabbit plaque aorta or normal rabbit aorta (0.5 cm) was incubated with 10 nCi of ^14C labeled compound or 1.5 μCi of ^99m Tc labeled compound or 0.135 μCi of ^111In labeled compound or 0.135 μCi of ^68Ga labeled compound or 0.135 µCi of ^153Gd labeled compound diluted in phosphate buffered saline (450 μL) for 2 hours at 37° C. The supernatant from this sample was collected and analyzed by HPLC to determine compound stability in presence of blood vessels. The blood vessel tissue was then washed with phosphate buffered saline (3×10 mL). Phosphate buffered saline (10 ml) was added to the tissue and incubated at 37° C. for 1 hour. The tissue was then washed with phosphate buffered saline (3×10 mL). The washed tissue was oxidized in a tissue oxidizer for C-14 labeled compounds. The counts in the oxidized tissue were determined on a beta counter. Blood vessels incubated with ^99m Tc labeled compound or ^111In labeled compound or ^68Ga labeled compound or ^153Gd labeled compound were counted on a gamma counter. The amount of compound bound to the tissue was determined as a percentage of the incubated compound. This was calculated using the following formula: [formula]

Series [3] concerns aorta of atherosclerotic rabbit model. Conditions: in vivo.
Protocol: Atherosclerosis was induced in New Zealand White male rabbits (3 kg) with aortic balloon endothelial injury followed by feeding a 0.5% cholesterol diet for 22 weeks. Test compounds were radiolabeled(^14C, ^99mTc, or ^111In as described above) and administered at 0.02-1.0 mCi/kg to anesthetized rabbits in a single, bolus injection vis the marginal ear vein. Blood samples were collected from the central ear artery at 0, 2, 5, 7, 10, 15, 30, and 60 minutes post injection. Rabbits were euthanized at 60 minutes post injection for tissue harvesting (blood, muscle, bile, urine, kidney, liver, spleen, heart, lung, colon, small intestine, stomach, testes). Abdominal aorta (upper, middle, and lower) and left and right femoral arteries were collected. Both plaque bearing and non-plaque bearing rabbits were administered compounds to compare aorta uptake. All samples were weighed and assayed for radioactivity. Tissue uptake is expressed as percent of injected dose per gram of tissue (% ID/g). The aorta to blood ratios were calculated from the % ID/g data.
The conditions of series [4]: mouse, in vivo, iv.
Protocol: as §1

*1 amine or outer side, *2 acyl side, *3 side chain or, on linkers, in order; H or OH if unused. Where a SMILES comes first, the peptide text is derived from it. [ ]: non-standard residue; d: D form. The star is where a group is joined. PABC = O=C(OCc1ccc(N[*:1])cc1)[*:2]; hPhe = N[C@@H](CCc1ccccc1)C(=O)O; X1 = CC(=O)NCCCCCC(=O)NN*; Boc = CC(C)(C)OC(=O)*; Nlys = NCCCCNCC(=O)O; X2 = CC(=O)NN*

With `CC(C)C[C@H](NC(=O)OC(C)(C)C)C(=O)Nc1ccc(COC(=O)N[C@H](CC(C)C)C(=O)NNC(=O)CCCCCN)cc1.O=C(O)C(F)(F)F` [Example 13, N-((2R)-2-{[(4-{(2S)-2-[(tert-Butoxy)carbonylamino]-4-methylpentanoylamino}phenyl)methoxy]carbonylamino}-4-methylpentanoylamino)-6-aminohexanamide, Trifluoroacetic Acid Salt], the “Rate of APN Hydrolysis of Test Substrates” value (from here on “Rate”) on Aminopeptidase N amounted to 0.33 μmoles/minute/U.
As to `CC(C)C[C@H](NC(=O)OC(C)(C)C)C(=O)N[C@H](CC(C)C)C(=O)NNC(=O)CCCCCN.O=C(O)C(F)(F)F` [Example 80, N-((2R)-2-{(2S)-2-[(tert-Butoxy)carbonylamino]-4-methylpentanoylamino}-4-methylpentanoylamino)-6-aminohexanamide, Trifluoroacetic Acid Salt], the “Rate” value on Aminopeptidase N was 0.00 μmoles/minute/U.
In the case of `CC(C)C[C@H](NC(=O)OC(C)(C)C)C(=O)Nc1ccc(C[C@@H](NC(=O)OC(C)(C)C)C(=O)NNC(=O)CCCCCN)cc1.O=CO` [Example 83, N-[(2R)-3-(4-{(2S)-2-[(tert-Butoxy)carbonylamino]-4-methylpentanoylamino}phenyl)-2-[(tert-butoxy)carbonylamino]propanoylamino]-6-aminohexanamide, Formic Acid Salt], the “Rate” value at Aminopeptidase N came to 0.43 μmoles/minute/U.
`CC(=O)NCCCCCC(=O)NNC(=O)[C@@H](CC(C)C)NC(=O)OCc1ccc(NC(=O)[C@H](CC(C)C)NC(=O)[C@H](CC(C)C)NC(=O)CN(CCCCNC(=O)OC(C)(C)C)C(=O)[C@H](CC(C)C)NC(=O)[C@@H]2CCCN2C(C)=O)cc1` [Example 128, Ac-PL-NLys(Boc)˜LL-PABA-CO-d-Leu-Ahxh-H] (Ac-PL[Nlys](Boc)LL[PABC][dL]-X1): in series [1], the “Aorta/Blood Ratio” value worked out at 2.3. For the same molecule, the “Tissue Binding %” value in series [2] was 5.77%. In series [3], the “Aorta/Blood (Plaque Rabbit)” value came out at 1.93.
`CC(=O)NNC(=O)[C@@H](CC(C)C)NC(=O)OCc1ccc(NC(=O)[C@H](CC(C)C)NC(=O)[C@H](CCc2ccccc2)NC(=O)CN(CCCCNC(=O)OC(C)(C)C)C(=O)[C@H](CC(C)C)NC(=O)[C@@H]2CCCN2C(C)=O)cc1` [Example 142] (Ac-PL[Nlys](Boc)[hPhe]L[PABC][dL]-X2) returned a tissue uptake at 1 h in series [4] of 2.1 %ID/g. For the same molecule, the “Aorta/Blood Ratio” value in series [1] stood at 1.9.
“Boc-d-Phe[p-(Ac-PL-NLys(Boc)˜Hphe-L-NH)]-Ahxh-H [Example 147]”: the “Aorta/Blood Ratio” value in series [1] is recorded as 8.8. For the same molecule, the “Tissue Binding %” value in series [2] is 44.73%. The “Aorta/Blood (Plaque Rabbit)” value in series [3] is given as 9.05.
